Measured values published in patent US12673140B2, “Bladder, ureter, kidney, urethra, prostate and catheter anti-microbial, and biofilm prevention, reduction and treatment” (UHI, LLC, priority 2019, dated 2026).

Tested on: S. aureus
Assay: MIC, CLSI microdilution
Type: cell-based
Details: 2% solution serially diluted

Compound: [H]/N=C(\N/C(=N/[H])NCCCCCCNC(=N)NC(=N)Nc1ccc(Cl)cc1)Nc1ccc(Cl)cc1 [Chlorhexidine, chlorhexidine gluconate]
- Chlorhexidine MIC: 19.6 μg/ml chlorhexidine
